Patent publication US20070027150A1 (priority 2005, published 2007)

Each compound was assayed against His-tagged N-terminal ATP binding domain (amino acid residues 9-236) of HSP90α (Homo sapiens, UniProt P07900) (assay: HSP90 inhibitor binding potency: TRF competition binding assay). Settings: Table I; read-out: Hsp90 IC50 Range.
Description: HSP90 Inhibitor Binding Potency: TRF Binding Assay
In this example, the binding potency of HSP90 inhibitors as measured by a TRF binding assay is described.
TRF competition binding assays were performed to determine the binding potency (IC50 values) of HSP90 inhibitors. Purified His-tagged N-terminal ATP binding domain (amino acid residues 9-236) of HSP90α (HSP90α GeneID: 3320; mRNA Sequence NM_005348) was incubated for two hours at room temperature in binding buffer (50 mM HEPES, 6 mM MgCl2, 20 mM KCl and 0.1% BSA) with biotinylated radicicol and progressively higher concentrations of the competing compounds. A fraction of the mixture was transferred to capture plates (coated with streptavidin) and incubated for one hour at room temperature. After washing with DELFIA wash buffer, europium-labeled anti-his antibody was added and incubated for two hours at room temperature, followed by washing with DELFIA buffer. DELFIA enhancement solution was then added. After gentle shaking for 10 minutes, the plates were read in VICTOR for europium counts.
Compound `Cc1nc(N)nc2c1C(=O)CC(c1c(-c3ccccn3)cccc1-c1ccccn1)C2` (centres unmarked) [Compound 38, 2-amino-7-(2,6-dipyridin-2-ylphenyl)-4-methyl-7,8-dihydroquinazolin-5(6H)-one] has an IC50 of less than 1000 nM. For `COc1ccc(F)cc1-c1ccccc1C1CC(=O)c2c(C)nc(N)nc2C1` (centres unmarked) [Compound 96, 2-amino-7-(5′-fluoro-2′-methoxy-1,1′-biphenyl-2-yl)-4-methyl-7,8-dihydroquinazolin-5(6H)-one], the IC50 was less than 1000 nM. `Cc1ccc(-c2ccccc2C2CC(=O)c3c(C)nc(N)nc3C2)nc1` (centres unmarked) [Compound 117, 2-amino-4-methyl-7-[2-(5-methylpyridin-2-yl)phenyl]-7,8-dihydroquinazolin-5(6H)-one] was tested, and the IC50 was less than 1000 nM. Work on `Cc1nc(N)nc2c1C(=O)CC(c1ccccc1-c1ccccc1)C2` (centres unmarked) [Compound 41, 2-amino-7-(1,1′-biphenyl-2-yl)-4-methyl-7,8-dihydroquinazolin-5(6H)-one] yielded an IC50 of less than 1000 nM. Compound `Cc1nc(N)nc2c1C(=O)CC(c1ccccc1-c1ccccc1Cl)C2` (centres unmarked) [Compound 79, 2-amino-7-(2′-chloro-1,1′-biphenyl-2-yl)-4-methyl-7,8-dihydroquinazolin-5(6H)-one] has an IC50 of less than 1000 nM. `Cc1nc(N)nc2c1C(=O)CC(c1ccc(F)cc1-c1ccccc1F)C2` (centres unmarked) [Compound 86, 2-amino-7-(5,2′-difluoro-biphenyl-2-yl)-4-methyl-7,8-dihydro-6H-quinazolin-5-one] gave an IC50 of less than 1000 nM. `Cc1nc(N)nc2c1C(=O)CC(c1ccccc1-c1ccc(F)cn1)C2` (centres unmarked) [Compound 123, 2-amino-7-[2-(5-fluoropyridin-2-yl)phenyl]-4-methyl-7,8-dihydroquinazolin-5(6H)-one] gave an IC50 of less than 1000 nM. `Cc1nc(N)nc2c1C(=O)CC(c1ccccc1C1=CCCCC1)C2` (centres unmarked) [Compound 44, 2-amino-7-(2-cyclohex-1-en-1-ylphenyl)-4-methyl-7,8-dihydroquinazolin-5(6H)-one] was tested, and the IC50 was less than 1000 nM. Compound `Cc1ncccc1-c1ccccc1C1CC(=O)c2c(C)nc(N)nc2C1` (centres unmarked) [Compound 116, 2-amino-4-methyl-7-[2-(2-methylpyridin-3-yl)phenyl]-7,8-dihydroquinazolin-5(6H)-one] has an IC50 of less than 1000 nM. Work on `Cc1nc(N)nc2c1C(=O)CC(c1ccccc1OC1CCCC1)C2` (centres unmarked) [Compound 150, 2-amino-7-(2-cyclopentyloxy-phenyl)-4-methyl-7,8-dihydro-6H-quinazolin-5-one] yielded an IC50 of less than 1000 nM. `Cc1nc(N)nc2c1C(=O)CC(c1ccccc1-c1cccnc1F)C2` (centres unmarked) [Compound 55, 2-amino-7-[2-(2-fluoropyridin-3-yl)phenyl]-4-methyl-7,8-dihydroquinazolin-5(6H)-one] gave an IC50 of less than 1000 nM. Work on `Cc1nc(N)nc2c1C(=O)CC(c1cnccc1-c1ccccc1)C2` (centres unmarked) [Compound 161, 2-amino-4-methyl-7-(4-phenylpyridin-3-yl)-7,8-dihydroquinazolin-5(6H)-one] yielded an IC50 of less than 1000 nM. `Cc1nc(N)nc2c1C(=O)CC(c1ccccc1OC1CCCCC1)C2` (centres unmarked) [Compound 17, 2-amino-7-[2-(cyclohexyloxy)phenyl]-4-methyl-7,8-dihydroquinazolin-5(6H)-one] was tested, and the IC50 was less than 1000 nM. `COc1cncc(-c2ccccc2C2CC(=O)c3c(C)nc(N)nc3C2)c1` (centres unmarked) [Compound 73, 2-amino-7-[2-(5-methoxypyridin-3-yl)phenyl]-4-methyl-7,8-dihydroquinazolin-5(6H)-one] gave an IC50 of 1000 to 10000 nM. For `Cc1nc(N)nc2c1C(=O)CC(c1ccccc1-c1cccc(F)c1)C2` (centres unmarked) [Compound 52, 2-amino-7-(3′-fluoro-1,1′-biphenyl-2-yl)-4-methyl-7,8-dihydroquinazolin-5(6H)-one], the IC50 was less than 1000 nM. With `COc1cccc(Oc2ccccc2C2CC(=O)c3c(C)nc(N)nc3C2)n1` (centres unmarked) [Compound 146, 2-amino-7-{2-[(6-methoxypyridin-2-yl)oxy]phenyl}-4-methyl-7,8-dihydroquinazolin-5(6H)-one] the IC50 was less than 1000 nM. With `Cc1nc(N)nc2c1C(=O)CC(c1ccc(F)cc1-c1cccc(F)n1)C2` (centres unmarked) [Compound 89, 2-amino-7-[4-fluoro-2-(6-fluoro-pyridin-2-yl)-phenyl]-4-methyl-7,8-dihydro-6H-quinazolin-5-one] the IC50 was less than 1000 nM. `Cc1nc(N)nc2c1C(=O)CC(c1ccccc1-c1cccc(C(N)=O)c1)C2` (centres unmarked) [Compound 91, 2′-(2-amino-4-methyl-5-oxo-5,6,7,8-tetrahydroquinazolin-7-yl)-1,1′-biphenyl-3-carboxamide] showed an IC50 of 1000 to 10000 nM. `Cc1ccc(-c2ccccc2C2CC(=O)c3c(C)nc(N)nc3C2)c(C)n1` (centres unmarked) [Compound 66, 2-amino-7-[2-(2,6-dimethylpyridin-3-yl)phenyl]-4-methyl-7,8-dihydroquinazolin-5(6H)-one] showed an IC50 of 1000 to 10000 nM.

Same assay, conditions: Table II; read-out: Hsp90 IC50 Range
Compound `COc1cccc(-c2scnc2[C@@H]2CC(=O)c3c(C)nc(N)nc3C2)n1` [Compound 298, (S)-2-amino-7-[5-(6-methoxy-pyridin-2-yl)-thiazol-4-yl]-4-methyl-7,8-dihydro-6H-quinazolin-5-one] has an IC50 of less than 1000 nM. Compound `Cc1nc(N)nc2c1C(=O)CC(c1ccc(F)cc1-c1cnc(N)nc1)C2` (centres unmarked) [Compound 269, 2-amino-7-[2-(2-amino-pyrimidin-5-yl)-4-fluoro-phenyl]-4-methyl-7,8-dihydro-6H-quinazolin-5-one] has an IC50 of 1000 to 10000 nM. With `COc1cncc(-c2scnc2C2CC(=O)c3c(C)nc(N)nc3C2)n1` (centres unmarked) [Compound 303, 2-amino-7-[5-(6-methoxy-pyrazin-2-yl)-thiazol-4-yl]-4-methyl-7,8-dihydro-6H-quinazolin-5-one] the IC50 was less than 1000 nM. For `COc1ncccc1-n1ccnc1C1CC(=O)c2c(C)nc(N)nc2C1` (centres unmarked) [Compound 202, 2-amino-7-[1-(2-methoxy-pyridin-3-yl)-1H-imidazol-2-yl]-4-methyl-7,8-dihydro-6H-quinazolin-5-one], the IC50 was less than 1000 nM. `COc1ncncc1-c1cc(F)ccc1C1CC(=O)c2c(C)nc(N)nc2C1` (centres unmarked) [Compound 278, 2-amino-7-[4-fluoro-2-(4-methoxy-pyrimidin-5-yl)-phenyl]-4-methyl-7,8-dihydro-6H-quinazolin-5-one] was tested, and the IC50 was less than 1000 nM. Work on `COc1nc(-c2cc(F)ccc2[C@@H]2CC(=O)c3c(C)nc(N)nc3C2)ncc1F` [Compound 230, (S)-2-amino-7-[4-fluoro-2-(5-fluoro-4-methoxy-pyrimidin-2-yl)-phenyl]-4-methyl-7,8-dihydro-6H-quinazolin-5-one] yielded an IC50 of less than 1000 nM. Work on `COc1cccc(-c2ccccc2C2CC(=O)c3c(nc(N)nc3C(F)(F)F)C2)n1` (centres unmarked) [Compound 216, 2-amino-7-[2-(6-methoxy-pyridin-2-yl)-phenyl]-4-trifluoromethyl-7,8-dihydro-6H-quinazolin-5-one] yielded an IC50 of less than 1000 nM. Compound `Cc1nc(N)nc2c1C(=O)CC(c1ccc(F)cc1-c1nccnc1NCCO)C2` (centres unmarked) [Compound 280, 2-amino-7-{4-fluoro-2-[3-(2-hydroxy-ethylamino)-pyrazin-2-yl]-phenyl}-4-methyl-7,8-dihydro-6H-quinazolin-5-one] has an IC50 of 1000 to 10000 nM. With `Cc1nc(N)nc2c1C(=O)CC(c1cccc(F)c1Br)C2` (centres unmarked) [Compound 237, 2-amino-7-(2-bromo-3-fluoro-phenyl)-4-methyl-7,8-dihydro-6H-quinazolin-5-one] the IC50 was 1000 to 10000 nM. For `COc1cccc(-c2ccccc2C2CC(=O)c3c(C)nc(N)nc3C2)c1F` (centres unmarked) [Compound 235, 2-amino-7-(2′-fluoro-3′-methoxy-biphenyl-2-yl)-4-methyl-7,8-dihydro-6H-quinazolin-5-one], the IC50 was 1000 to 10000 nM. `Cc1nc(N)nc2c1C(=O)C[C@@H](c1ccc(F)cc1-c1cnc3ncn(C)c3n1)C2` [Compound 331, (S)-2-amino-7-[4-fluoro-2-(3-methyl-3H-imidazo[4,5-b]pyrazin-5-yl)-phenyl]-4-methyl-7,8-dihydro-6H-quinazolin-5-one] showed an IC50 greater than 10000 nM. `CCC(CC)Oc1cc(F)ccc1C1CC(=O)c2c(C)nc(N)nc2C1` (centres unmarked) [Compound 267, 2-amino-7-[2-(1-ethyl-propoxy)-4-fluoro-phenyl]-4-methyl-7,8-dihydro-6H-quinazolin-5-one] was tested, and the IC50 was less than 1000 nM. For `COc1cncc(-c2cc(F)ccc2[C@H]2CC(=O)c3c(C)nc(N)nc3C2)n1` [Compound 225, (R)-2-amino-7-[4-fluoro-2-(6-methoxy-pyrazin-2-yl)-phenyl]-4-methyl-7,8-dihydro-6H-quinazolin-5-one], the IC50 was 1000 to 10000 nM. `Cc1nc(N)nc2c1C(=O)CC(c1c(F)cccc1Br)C2` (centres unmarked) [Compound 236, 2-amino-7-(2-bromo-6-fluoro-phenyl)-4-methyl-7,8-dihydro-6H-quinazolin-5-one] showed an IC50 of 1000 to 10000 nM. Work on `COc1ccc(C(F)(F)F)cc1-n1ccnc1C1CC(=O)c2c(C)nc(N)nc2C1` (centres unmarked) [Compound 199, 2-amino-7-[1-(2-methoxy-5-trifluoromethyl-phenyl)-1H-imidazol-2-yl]-4-methyl-7,8-dihydro-6H-quinazolin-5-one] yielded an IC50 of 1000 to 10000 nM. For `Cc1nc(N)nc2c1C(=O)CC(c1ncccc1OC(C)C)C2` (centres unmarked) [Compound 175, 2-amino-7-(3-isopropoxy-pyridin-2-yl)-4-methyl-7,8-dihydro-6H-quinazolin-5-one], the IC50 was less than 1000 nM. In the case of `COc1ccc(-c2cccnc2OC)c(C2CC(=O)c3c(C)nc(N)nc3C2)c1` (centres unmarked) [Compound 253, 2-amino-7-[5-methoxy-2-(2-methoxy-pyridin-3-yl)-phenyl]-4-methyl-7,8-dihydro-6H-quinazolin-5-one], the IC50 is reported as less than 1000 nM. In the case of `Cc1nc(N)nc2c1C(=O)CC(c1c(F)cccc1-c1cncnc1)C2` (centres unmarked) [Compound 218, 2-amino-7-(2-fluoro-6-pyrimidin-5-yl-phenyl)-4-methyl-7,8-dihydro-6H-quinazolin-5-one], the IC50 is reported as less than 1000 nM. For `CCc1cccc(-n2ccnc2C2CC(=O)c3c(C)nc(N)nc3C2)n1` (centres unmarked) [Compound 201, 2-amino-7-[1-(6-ethyl-pyridin-2-yl)-1H-imidazol-2-yl]-4-methyl-7,8-dihydro-6H-quinazolin-5-one], the IC50 was 1000 to 10000 nM.
